Test results: US7741337B2, “Azonafide derivatives, methods for their production and pharmaceutical compositions therefrom” (Unibioscreen S.A., priority 2005, dated 2010)
pIC50: −log10 of the molar value. Counter-ions that a name gives are not always drawn. Like-named read-outs stand apart in the source and are kept apart here.

Columns and labels:
[1] = test system: human cancer cell lines Hs683, U-373MG, HCT-15, LoVo, A549 and MCF-7; assay: MTT test, effect on overall cell growth (mean of six cell lines, examples 3 to 26); format: cell-based; details: mean of six cell lines Hs683, U-373MG, A549, MCF-7, 72 hours incubation, range of molar concentrations resulting in 50% inhibition of overall tumor cells growth
Procedure: (§1) MTT tests were performed in order to rapidly, i.e. within 5 days, measure the effect of azonafide derivatives of this invention on the overall cell growth. The test measures the number of metabolically active living cells that are able to transform the yellow product 3-(4,5-dimethylthiazol-2-yl)-2,5-diphenyl tetrazolium bromide (herein referred as MTT) into the blue product formazan dye by mitochondrial reduction. The amount of formazan obtained at the end of the experiment, measured by means of a spectrophotometer, is directly proportional to the number of living cells. Optical density determination thus enables a quantitative measurement of the effect of the investigated compounds as compared to the control condition (untreated cells) and/or to other reference compounds.
(§2) Height human cancer cell lines described in table 1 were used in the following MTT tests. These cell lines cover six histological cancer types, being prostate, glioma, pancreas, colon, lung and breast cancers. Cells were allowed to grow in 96-well micro-wells with a flat bottom with an amount of 100 μl of cell suspension per well with 1,000 to 4,000 cells/well depending on the cell type used. Each cell line was seeded in a well known MEM 5% serum culture medium.
(§3) The detailed experimental procedure was as following: after a 24-hour period of incubation at 37° C., the culture medium was replaced by 100 μl of fresh medium in which the compound to be tested was dissolved at the following molar concentrations: 10^−9 M, 5.10^−9 M, 10^−8 M, 5.10^−8 M, 10^−7 M, 5.10^−7 M, 10^−6 M, 5.10^−6 M and 10^−5 M. Each experiment was repeated 6 times.
(§4) After 72 hours of incubation at 37° C. with (experimental conditions) or without (control condition) the compound to be tested, the medium was replaced by 100 μl MTT dissolved in RPMI at a concentration of 1 mg/ml. The micro-wells were subsequently incubated during 3 hours at 37° C. and centrifuged at 400 g during 10 minutes. MTT was removed and formazan crystals formed were dissolved in 100 μl DMSO. The micro-wells were shaken for 5 minutes and read on a spectrophotometer at wavelengths of 570 nm (maximum formazan absorbance) and 630 nm (back-ground noise).
(§5) For each experimental condition, the mean optical density was calculated, as well as the percentage of remaining living cells in comparison with the control.
(§6) IC50 values for compounds of examples 3 to 26 were obtained on cell lines Hs683, U-373MG, HCT-15, LoVo, A549 and MCF-7 described in Table 1. IC50 values for compounds from examples 27 to 45 were obtained on cell lines PC3, U-373MG, BxPC3, LoVo, A549 and MCF-7 described in Table 1.

[2] = test system: U-373 MG (Glioma cancer) cells; assay: Effect on cell migration, U-373MG; format: cell-based; details: Homo sapiens, U373 MG, p value in same cell, read-out: Maximum effects (cell migration); for Emax at 0.1 µM: at 10^−7 M; for Emax at 1 µM: at 10^−6 M
Procedure: (§7) Cells of different cancer lines, i.e. U-373 MG (Glioma cancer), PC3 (prostate cancer and A549 (Lung cancer) were seeded on culture flask 48 hours before the migration experiment. On the test day, cells were treated with or without the azonafide derivatives mentioned in table 3 in closed Falcon dishes containing a buffered medium at a controlled temperature (37.0±0.1° C.) for 12 or 22 hours, as noted in the right column of table 3. The azonafide derivatives were used at three non-cytotoxic concentrations (10^−6 M, 10^−7, 10^−8 M). Migration of the cells was observed by means of a CCD-camera mounted on a phase-contrast microscope. Statistical analysis of the migration, with the non-parametric Mann-Whitney test, was established for 25% and 50% of the most motile cells and for the entire cell population.

A549 (Lung cancer) cells = assay: Effect on cell migration, A549; format: cell-based; details: Homo sapiens, p value in same cell, read-out: Maximum effects (cell migration); for Emax at 1 µM: at 10^−6 M; for Emax at 0.01 µM: at 10^−8 M; for Emax at 0.1 µM: at 10^−7 M
Procedure: as §7

[3] = test system: U-373 MG, PC-3 and/or A549 cancer cells; assay: Effect on cell migration, summary of table 3; format: cell-based, human; details: for migration level of cancer cells: U-373 MG, PC-3 and/or A549 cancer cells at the non-cytotoxic concentrations of this study; for cell migration activity compared with the closest compounds known in the art: comparison drawn from table 3
Procedure: as §7

[4] = test system: human cancer cell lines PC3, U-373MG, BxPC3, LoVo, A549 and MCF-7; assay: MTT test, effect on overall cell growth (mean of six cell lines, examples 27 to 45); format: cell-based; details: mean of six cell lines PC3, U-373MG, A549, MCF-7, 72 hours incubation, range of molar concentrations resulting in 50% inhibition of overall tumor cells growth
Procedure: as §1, §2, §3, §4, §5, §6

[5] = test system: PC3 (prostate cancer) cells; assay: Effect on cell migration, PC3; format: cell-based; details: Homo sapiens, 22 hours on the 25% of most motile cells, p value in same cell, read-out: Maximum effects (cell migration); for Emax at 1 µM: at 10^−6 M
Procedure: as §7

[6] = 22 hours on the 25% of most motile cells

SMILES | pIC50 [1] | Emax at 1 µM (A549 (Lung cancer) cells; [6]) | migration level of cancer cells [3] | cell migration activity compared with the closest compounds known in the art [3] | also measured
COC(=O)Nc1cccc2cc3cccc4c3c(c12)C(=O)N(CCN(C)C)C4=O [Example 9, methyl {2-[2-(dimethylamino)ethyl]-1,3-dioxo-2,3-dihydro-1H-dibenzo[de,h]isoquinolin-11-yl}carbamate] | 5.00 to 5.30 | -28% | induced a decrease in the migration level | significantly greater cell migration activity than the closest compounds known in the art, or similar cell migration activity at significantly lower concentrations | Emax at 0.1 µM ([2]; 12 and 22 hours on the 25% of most motile cells): -31%; Emax at 1 µM (A549 (Lung cancer) cells; 12 hours on the 25% of most motile cells): -40%
CC(C)COC(=O)Nc1cccc2cc3cccc4c3c(c12)C(=O)N(CCN(C)C)C4=O [Example 27, isobutyl {2-[2-(dimethylamino)ethyl]-1,3-dioxo-2,3-dihydro-1H-dibenzo[de,h]isoquinolin-11-yl}carbamate] | – | -28% | induced a decrease in the migration level | – | pIC50 [4]: < 5.00
CN(C)CCN1C(=O)c2cccc3cc4cccc(NC(=O)Cc5ccc(Cl)cc5)c4c(c23)C1=O [Example 11, 2-(4-chlorophenyl)-N-{2-[2-(dimethylamino)ethyl]-1,3-dioxo-2,3-dihydro-1H-dibenzo[de,h]isoquinolin-11-yl}acetamide] | < 5.00 | – | induced a decrease in the migration level | significantly greater cell migration activity than the closest compounds known in the art, or similar cell migration activity at significantly lower concentrations | Emax at 1 µM [2, 6]: -18%; Emax at 1 µM [5]: -37%; Emax at 0.1 µM ([5]; at 10^−7 M): -27%
CN(C)CCN1C(=O)c2cccc3cc4cccc(N)c4c(c23)C1=O [Example 3, 11-amino-2-[2-(dimethylamino)ethyl]-1H-dibenzo[de,h]isoquinoline-1,3(2H)-dione, reference compound] | 5.00 to 5.30 | – | – | – | Emax at 1 µM [2, 6]: -31%
CN(C)CCN1C(=O)c2cccc3cc4cccc(NC(=O)Oc5ccc(F)cc5)c4c(c23)C1=O [Example 24, 4-fluorophenyl {2-[2-(dimethylamino)ethyl]-1,3-dioxo-2,3-dihydro-1H-dibenzo[de,h]isoquinolin-11-yl}carbamate] | < 5.00 | – | induced a decrease in the migration level | significantly greater cell migration activity than the closest compounds known in the art, or similar cell migration activity at significantly lower concentrations | Emax at 0.01 µM (A549 (Lung cancer) cells; [6]): -31%
CCCCOC(=O)Nc1cccc2cc3cccc4c3c(c12)C(=O)N(CCN(C)C)C4=O [Example 29, n-butyl {2-[2-(dimethylamino)ethyl]-1,3-dioxo-2,3-dihydro-1H-dibenzo[de,h]isoquinolin-11-yl}carbamate] | – | – | induced a decrease in the migration level | significantly greater cell migration activity than the closest compounds known in the art, or similar cell migration activity at significantly lower concentrations | pIC50 [4]: < 5.00; Emax at 0.1 µM (A549 (Lung cancer) cells; [6]): -33%; Emax at 1 µM [5]: -22%
CCCCCCCCOC(=O)Nc1cccc2cc3cccc4c3c(c12)C(=O)N(CCN(C)C)C4=O [Example 25, octyl {2-[2-(dimethylamino)ethyl]-1,3-dioxo-2,3-dihydro-1H-dibenzo[de,h]isoquinolin-11-yl}carbamate] | 5.00 to 5.30 | – | induced a decrease in the migration level | – | Emax at 0.1 µM (A549 (Lung cancer) cells; [6]): -28%; Emax at 0.01 µM ([5]; at 10^−8 M): -21%
CN(C)CCN1C(=O)c2cccc3cc4c(NC(=O)Nc5ccc6c(c5)OCO6)cccc4c(c23)C1=O [Example 14, 1-(1,3-benzodioxol-5-yl)-3-{2-[2-(dimethylamino)ethyl]-1,3-dioxo-2,3-dihydro-1H-dibenzo[de,h]isoquinolin-8-yl}urea] | < 5.00 | -24% | induced a decrease in the migration level | – | –
C=CCOC(=O)Nc1cccc2cc3cccc4c3c(c12)C(=O)N(CCN(C)C)C4=O [Example 26, allyl {2-[2-(dimethylamino)ethyl]-1,3-dioxo-2,3-dihydro-1H-dibenzo[de,h]isoquinolin-11-yl}carbamate] | – | – | induced a decrease in the migration level | significantly greater cell migration activity than the closest compounds known in the art, or similar cell migration activity at significantly lower concentrations | Emax at 0.01 µM (A549 (Lung cancer) cells; [6]): -29%
CN(C)CCN1C(=O)c2cccc3cc4cccc(NC(=O)CCCCl)c4c(c23)C1=O [Example 10, 4-chloro-N-{2-[2-(dimethylamino)ethyl]-1,3-dioxo-2,3-dihydro-1H-dibenzo[de,h]isoquinolin-11-yl}butanamide] | 5.30 to 6.00 | -24% | induced a decrease in the migration level | – | –
CN(C)CCN1C(=O)c2cccc3cc4cccc(NC(=O)Nc5ccc6c(c5)OCO6)c4c(c23)C1=O [Example 12, 1-(1,3-benzodioxol-5-yl)-3-{2-[2-(dimethylamino)ethyl]-1,3-dioxo-2,3-dihydro-1H-dibenzo[de,h]isoquinolin-11-yl}urea] | 5.00 to 5.30 | – | induced a decrease in the migration level | – | Emax at 0.1 µM [2, 6]: -20%
CCOC(=O)Nc1cccc2cc3cccc4c3c(c12)C(=O)N(CCN(C)C)C4=O [Example 17, ethyl {2-[2-(dimethylamino)ethyl]-1,3-dioxo-2,3-dihydro-1H-dibenzo[de,h]isoquinolin-11-yl}carbamate] | < 5.00 | – | induced a decrease in the migration level | significantly greater cell migration activity than the closest compounds known in the art, or similar cell migration activity at significantly lower concentrations | Emax at 0.1 µM [2, 6]: -42%; Emax at 0.1 µM (A549 (Lung cancer) cells; [6]): -44%
CN(C)CCN1C(=O)c2cccc3cc4c(NC(=O)Nc5ccc6c(c5)OCO6)cccc4c(c23)C1=O [Example 15, 1-(1,3-benzodioxol-5-yl)-3-{2-[2-(dimethylamino)ethyl]-1,3-dioxo-2,3-dihydro-1H-dibenzo[de,h]isoquinolin-8-yl}urea hydrochloride] | – | – | – | significantly greater cell migration activity than the closest compounds known in the art, or similar cell migration activity at significantly lower concentrations | Emax at 1 µM [2, 6]: -51%
